According to ChEMBL document CHEMBL3991946, “Linked Myc-max small molecule inhibitors” (2014):
The source made the active and inactive calls. The rule behind the calls is not given here.

Legend:
[1] = Cytotoxicity against c-Myc null rat TGR1 reconstituted with HMGA1b or MT-MC1 assessed as growth inhibition after 4 to 5 days by MTT assay; format: cell-based
[2] = target: T1, Myc proto-oncogene protein (Homo sapiens, UniProt P01106); assay: Binding affinity to recombinant full-length N-terminal hexahistidine-tagged c-Myc (353 to 437 residues) bHLH-ZIP domain (unknown origin) expressed in Escherichia coli BL21 DE3 (pLysS) assessed as changes in COSY spectra in alpha1H region at 500 uM by NMR spectroscopy
T1 sequence (P01106 whole entry, the tested form may be a part): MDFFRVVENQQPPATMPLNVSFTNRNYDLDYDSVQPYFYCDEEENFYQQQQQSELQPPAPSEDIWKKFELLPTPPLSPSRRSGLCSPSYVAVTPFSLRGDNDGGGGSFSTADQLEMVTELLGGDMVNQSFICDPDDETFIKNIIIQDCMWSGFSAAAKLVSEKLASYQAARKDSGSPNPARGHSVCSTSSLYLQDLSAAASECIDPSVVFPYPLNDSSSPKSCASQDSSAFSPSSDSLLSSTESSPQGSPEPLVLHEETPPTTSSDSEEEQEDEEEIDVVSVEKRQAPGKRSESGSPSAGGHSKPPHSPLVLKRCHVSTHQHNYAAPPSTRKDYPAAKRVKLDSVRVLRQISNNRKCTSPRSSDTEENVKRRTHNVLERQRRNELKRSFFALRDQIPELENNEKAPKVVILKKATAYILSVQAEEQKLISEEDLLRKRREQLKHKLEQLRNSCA

[3] = target: T2, c-Myc/Max (Homo sapiens) (UniProt P01106+P61244); assay: (§1) Inhibition of recombinant full-length N-terminal hexahistidine-tagged c-Myc (353 to 437 residues) bHLH-ZIP domain (unknown origin) expressed in Escherichia coli BL21 DE3 (pLysS)/human hexahistidine-tagged Max p21 expressed in Escherichia coli M15 (pRep4) assessed as disruption of E-Box DNA binding at 25 to 50 nM preincubated for 30 mins with c-Myc followed by Max p21 and E-box element measured after 15 mins by electrophoretic mobility shift assay
[4] = Cytotoxicity against non-transformed rat TGR1 assessed as growth inhibition after 4 to 5 days by MTT assay; format: cell-based
[5] = target: T1, Myc proto-oncogene protein; assay: Binding affinity to recombinant full-length N-terminal hexahistidine-tagged c-Myc (353 to 437 residues) bHLH-ZIP domain (unknown origin) expressed in Escherichia coli BL21 DE3 (pLysS) assessed as changes in shape or intensity of CD spectrum at 5 uM by circular dichroism assay
[6] = target: T2, c-Myc/Max (Homo sapiens); assay: as §1, with “binding” for “binding at 25 to 50 nM”, “element addition” for “element”
[7] = target: Protein max (Homo sapiens) (UniProt P61244); assay: Binding affinity to human hexahistidine-tagged Max p21 bHLH-ZIP domain expressed in Escherichia coli M15 (pRep4) at 10 uM by fluorescence polarization assay
Sequence of Protein max (Homo sapiens) (P61244 whole entry, the tested form may be a part): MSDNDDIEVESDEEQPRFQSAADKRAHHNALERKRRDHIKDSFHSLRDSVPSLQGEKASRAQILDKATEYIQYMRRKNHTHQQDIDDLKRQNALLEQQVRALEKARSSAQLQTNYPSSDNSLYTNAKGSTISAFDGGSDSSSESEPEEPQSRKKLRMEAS

[8] = target: T1, Myc proto-oncogene protein; assay: Binding affinity to recombinant full-length N-terminal hexahistidine-tagged c-Myc (353 to 437 residues) bHLH-ZIP domain (unknown origin) expressed in Escherichia coli BL21 DE3 (pLysS) by fluorescence polarization assay
[9] = target: T3, c-Myc/c-Max (Homo sapiens) (UniProt P01106+P61244); assay: Inhibition of recombinant c-Myc/Max (unknown origin) expressed in human HL60 cells assessed as disruption of c-Myc/Max association after 6 hrs by co-immunoprecipitation assay; format: cell-based
T3 sequence (P01106 whole entry): as the sequence (P01106 whole entry, the tested form may be a part) above
T3 sequence (P61244 2-160 partner limits assumed): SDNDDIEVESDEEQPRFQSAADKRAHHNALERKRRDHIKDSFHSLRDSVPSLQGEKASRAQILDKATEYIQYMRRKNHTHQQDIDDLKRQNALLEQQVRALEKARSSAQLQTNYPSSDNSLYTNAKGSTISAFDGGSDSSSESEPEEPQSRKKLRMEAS

[10] = Metabolic stability of the compound
[11] = test system: Daudi; assay: Cytotoxicity against human Daudi Burkitt lymphoma cells expressing c-Myc assessed as growth inhibition after 4 to 5 days by MTT assay; format: functional, cell-based
[12] = target: T3, c-Myc/c-Max (Homo sapiens); assay: Inhibition of recombinant c-Myc/Max (unknown origin) expressed in human HL60 cells assessed as disruption of c-Myc/Max association after 16 hrs by co-immunoprecipitation assay; format: cell-based
[13] = test system: HL-60; assay: Cytotoxicity against human HL60 cells expressing c-Myc assessed as growth inhibition after 4 to 5 days by MTT assay; format: functional, cell-based
[14] = target: T1, Myc proto-oncogene protein; assay: Binding affinity to recombinant truncated N-terminal hexahistidine-tagged c-Myc (363 to 381 residues) bHLH-ZIP domain (unknown origin) expressed in Escherichia coli BL21 DE3 (pLysS) by fluorescence polarization assay
[15] = target: T1, Myc proto-oncogene protein; assay: Binding affinity to recombinant truncated N-terminal hexahistidine-tagged c-Myc (400 to 439 residues) bHLH-ZIP domain (unknown origin) expressed in Escherichia coli BL21 DE3 (pLysS) by fluorescence polarization assay
[16] = target: T1, Myc proto-oncogene protein; assay: Binding affinity to recombinant full-length N-terminal hexahistidine-tagged c-Myc (353 to 437 residues) bHLH-ZIP domain (unknown origin) expressed in Escherichia coli BL21 DE3 (pLysS) assessed as changes in alpha1H signals of Tyr 402 residues at 500 uM by NMR spectroscopy
[17] = target: T1, Myc proto-oncogene protein; assay: Binding affinity to recombinant full-length N-terminal hexahistidine-tagged c-Myc (353 to 437 residues) bHLH-ZIP domain (unknown origin) expressed in Escherichia coli BL21 DE3 (pLysS) assessed as changes in NOESY spectra at 500 uM by NMR spectroscopy
[18] = target: T1, Myc proto-oncogene protein; assay: Binding affinity to recombinant full-length N-terminal hexahistidine-tagged c-Myc (353 to 437 residues) bHLH-ZIP domain (unknown origin) expressed in Escherichia coli BL21 DE3 (pLysS) assessed as changes in alpha1H signals of Phe 374 to 375 and Tyr 402 residues at 500 uM by NMR spectroscopy
[19] = target: T1, Myc proto-oncogene protein; assay: Displacement of 10058-F4 from recombinant full-length N-terminal hexahistidine-tagged c-Myc (353 to 437 residues) bHLH-ZIP domain (unknown origin) expressed in Escherichia coli BL21 DE3 (pLysS) by fluorescence polarization assay

Row | SMILES | Kd [8] | growth inhibition (GI) [1] | growth inhibition (GI) [4] | IC50 [11] | IC50 [13] | further results
1 | O=[N+]([O-])c1ccc(Nc2ccccc2-c2ccccc2)c2nonc12 |  | Non-Toxic | Non-Toxic |  |  | inhibition [2]: Active; inhibition [3]: Active
2 | O=C1NC(=S)S/C1=C\c1ccc(C(=O)NCCCCCNC(=O)c2cccc(Nc3ccc([N+](=O)[O-])c4nonc34)c2)cc1 |  | Non-Toxic | Non-Toxic |  |  | Activity [5]: inactive; inhibition [6]: Active; Activity [7]: inactive
3 | O=C(NCCCCCN1C(=O)S/C(=C\c2ccc(F)cc2)C1=O)c1ccccc1Nc1ccc([N+](=O)[O-])c2nonc12 | 11 nM |  |  | 1000 to 1200 nM | 1500 to 1700 nM | inhibition [9]: Dose-dependent effect; Stability [10]: Unstable; inhibition [12]: inactive
4 | O=C1NC(=S)S/C1=C/c1ccc(C(=O)NCCCCCNC(=O)c2ccc(Nc3ccc([N+](=O)[O-])c4nonc34)cc2)cc1 |  | Non-Toxic | Non-Toxic |  |  | Activity [5]: inactive; inhibition [6]: Active; Activity [7]: inactive
5 | O=C(CNC(=O)c1ccc(Nc2ccc([N+](=O)[O-])c3nonc23)cc1)NCCCCCNC(=O)c1ccc(/C=C2\SC(=S)NC2=O)cc1 | 320 nM | Non-Toxic | Non-Toxic | 7000 to 11000 nM | 7000 to 13000 nM | 
6 | O=C1NC(=S)S/C1=C\c1ccc(C(=O)O)cc1 | 26000 nM |  |  |  |  | 
7 | O=C(NCCCCCCN1C(=O)S/C(=C\c2ccc(F)cc2)C1=O)c1ccccc1Nc1ccc([N+](=O)[O-])c2nonc12 | 4.6 nM |  |  | 6000 to 8000 nM | 3000 to 3500 nM | 
8 | O=C(CCCCCNC(=O)c1ccc(Nc2ccc([N+](=O)[O-])c3nonc23)cc1)NCCCCCNC(=O)c1ccc(/C=C2\SC(=S)NC2=O)cc1 | 55 nM |  |  |  |  | 
9 | O=C1NC(=S)S/C1=C\c1ccc(C(=O)NCCCCCNC(=O)c2ccccc2Nc2ccc([N+](=O)[O-])c3nonc23)cc1 | 24 nM | Non-Toxic | Non-Toxic |  | > 10000 nM | Kd [14]: 10 nM; Activity [5]: inactive; inhibition [6]: Active; Kd [15]: 122 nM; Activity [7]: inactive
10 | CC(=O)NCCCCCOC(=O)c1ccc(Nc2ccc([N+](=O)[O-])c3nonc23)cc1 | 1700 nM |  |  |  |  | 
11 | CCc1ccc(/C=C2\SC(=S)NC2=O)cc1 |  | Non-Toxic | Non-Toxic |  |  | inhibition [2]: Active; inhibition [3]: Active; inhibition [16]: Active
12 | CCc1ccc(/C=C2\SC(=O)N(CCCCCCNC(C)=O)C2=O)cc1 | 7000 nM |  |  |  |  | Activity [19]: Active
13 | CCc1ccc(/C=C2\SC(=O)N(CCCCNC(=O)c3ccc(Nc4ccc([N+](=O)[O-])c5nonc45)cc3)C2=O)cc1 |  | Non-Toxic | Non-Toxic |  |  | Stability [10]: Unstable

Now from value to compound, other results behind:

Row | Kd [8] | SMILES | growth inhibition (GI) [1] | growth inhibition (GI) [4] | IC50 [11] | IC50 [13] | further results
14 | 110 nM | CCc1ccc(/C=C2\SC(=O)N(CCCCCNC(=O)c3cccc(Nc4ccc([N+](=O)[O-])c5nonc45)c3)C2=O)cc1 | Non-Toxic | Non-Toxic | > 10000 nM | > 30000 nM | Activity [5]: inactive; inhibition [6]: Active; Activity [7]: inactive
15 | 3 nM | CCc1ccc(/C=C2\SC(=O)N(CCCCNC(=O)c3ccccc3Nc3ccc([N+](=O)[O-])c4nonc34)C2=O)cc1 |  |  | 2000 to 2500 nM | 2000 to 6000 nM | inhibition [9]: Dose-dependent effect; Stability [10]: Unstable; inhibition [12]: inactive
16 | 1.7 nM | O=C(NCCCCCCN1C(=O)S/C(=C\c2ccc(F)cc2)C1=O)c1ccc(Nc2ccc([N+](=O)[O-])c3nonc23)cc1 |  |  | 1200 nM | 3000 to 4000 nM | inhibition [9]: Dose-dependent effect; Stability [10]: Unstable; inhibition [12]: inactive
17 | 0.6 nM | CCc1ccc(/C=C2\SC(=O)N(CCCCCNC(=O)c3ccc(Nc4ccc([N+](=O)[O-])c5nonc45)cc3)C2=O)cc1 | Non-Toxic | Non-Toxic | 2000 to 4000 nM | 7000 to 9000 nM | inhibition [2]: Active; Activity [17]: Active; Activity [5]: inactive; inhibition [6]: Active; inhibition [18]: Active; Activity [7]: inactive
18 | 5 nM | CCc1ccc(/C=C2\SC(=O)N(CCCCCNC(=O)CCCCCNC(=O)c3ccc(Nc4ccc([N+](=O)[O-])c5nonc45)cc3)C2=O)cc1 |  |  |  |  | 
19 | 3.6 nM | CCc1ccc(/C=C2\SC(=O)N(CCCCCNC(=O)CNC(=O)c3ccc(Nc4ccc([N+](=O)[O-])c5nonc45)cc3)C2=O)cc1 | Non-Toxic | Non-Toxic | 4000 to 6000 nM | 2000 to 4000 nM | 
20 | 3.6 nM | O=C(NCCCCCN1C(=O)S/C(=C\c2ccc(F)cc2)C1=O)c1ccc(Nc2ccc([N+](=O)[O-])c3nonc23)cc1 |  |  | 6000 to 7000 nM | 6000 to 10000 nM | 
